Earlier results as cited in patent US9700872B1, “Superpolar chromatographic stationary phases and extraction sorbents and their methods of synthesis” (THE FLORIDA INTERNATIONAL UNIVERSITY BOARD OF TRUSTEES, priority 2016, dated 2017).
Read-outs that look alike come from different tables or passages of the source.

Settings: octanol/water
[1] = Top 100 EPA Priority Pollutants (Table 2)
[2] = exemplary polyhydroxy molecules (Table 1)

For `C1=Cc2cccc3cccc1c23` [Acenaphthylene], the “Log Kow” value [1] is given as 3.7.
For `Clc1ccccc1` [Chlorobenzene], the “Log Kow” value [1] is given as 2.84.
In the case of `CCCCOC(=O)c1ccccc1C(=O)OCCCC` [Di-N-butyl phthalate], the “Log Kow” value [1] is listed as 4.7.
In the case of `CCCCC(CC)COC(=O)c1ccccc1C(=O)OCC(CC)CCCC` (centres unmarked) [Bis(2-Ethylhexyl)phthalate], the “Log Kow” value [1] is listed as 7.4.
In the case of `c1ccc2cc3ccccc3cc2c1` [Anthracene], the “Log Kow” value [1] is listed as 4.4.
In the case of `Clc1ccccc1Cl` [1,2-Dichlorobenzene], the “Log Kow” value [1] is listed as 3.4.
In the case of `c1cc2c3c(cccc3c1)CC2` [Acenaphthene], the “Log Kow” value [1] is given as 3.9.
In the case of `CCOC(=O)c1ccccc1C(=O)OCC` [Diethyl phthalate], the “Log Kow” value [1] is listed as 2.5.
In the case of `c1ccc2c(c1)ccc1ccccc12` [Phenanthrene], the “Log Kow” value [1] is listed as 4.5.
For `CCCl` [Chloroethane], the “Log Kow” value [1] is given as 1.2.
In the case of `OC[C@H]1O[C@H](O[C@]2(CCl)O[C@H](CCl)[C@@H](O)[C@@H]2O)[C@H](O)[C@@H](O)[C@H]1Cl` [Sucralose], the “Log Kow” value [2] is given as −1.5.
In the case of `OC[C@@H](O)[C@@H](O)[C@H](O)[C@@H](O)CO` [Sorbitol], the “Log Kow” value [2] is given as −3.1.
In the case of `Clc1ccc(Oc2ccccc2)cc1` [4-Chlorophenyl phenyl ether], the “Log Kow” value [1] is given as 4.3.
For `CC1=CC(=O)CC(C)(C)C1` [Isophorone], the “Log Kow” value [1] is listed as 1.6.
For `c1ccc2c(c1)Cc1ccccc1-2` [Fluorene], the “Log Kow” value [1] is given as 4.2.
For `Brc1ccc(Oc2ccccc2)cc1` [4-Bromophenyl phenyl ether], the “Log Kow” value [1] is given as 4.4.
In the case of `c1ccc2c(c1)cc1ccc3cccc4ccc2c1c34` [Benzo(a)pyrene], the “Log Kow” value [1] is given as 6.
